Data taken from PMC9841431 (Nucleic Acids Research, 2022).

Assays:
Mrx2 mutants = Mrx2 mutants (Mycobacterium tuberculosis, UniProt O53193, G95S); format: biochemical, M. tuberculosis
[1] = test system: M. tuberculosis mrx2 KO mutant (Δmrx2); format: cell-based; details: times higher

Structure (SMILES)	Activity of Mrx2G95S against the compound (Mrx2 mutants)	MIC of Δmrx2 relative to M. tuberculosis H37Rv [1] [times]
O=[N+]([O-])c1cc2cc3ccc4oc([N+](=O)[O-])cc4c3cc2o1 [nNF-C2, 2,8-Dinitronaphtho[2,1-b:7,6-b']difuran]	maintained its ability to metabolize	8
COC(=O)c1ccc2c(ccc3oc([N+](=O)[O-])cc32)c1 [nNF-C4, Methyl 2-nitronaphtho[2,1-b]furan-7-carboxylate]	–	16
